In publication PMC8416020 (eLife, 2021):
Entries after “also recorded” stand apart in the source; their conditions may differ. Where no end group is shown, it is not given here.

Tests used:
[1] = test system: GHSR labeled with 7H4MC-ethylglycine at F272^6.44; assay: Hydration parameter H from 7H4MC fluorescence emission; assay type: biochemical, human; settings: for H parameter: 6.44
Source text: (§1) We then investigated whether the fluorescence properties of 7H4MC-ethylglycine could report on the local hydration features of GHSR. To this end, we analyzed the 7H4MC emission profile for each of the positions considered. An excitation wavelength of 320 nm was systematically used to excite the neutral form of the fluorophore ([Amaro et al., 2015]). The emission spectra were deconvoluted into their separate components using the procedure initially described ([Amaro et al., 2015]). A hydration parameter H was then determined that corresponded to the sum of the contributions of the anionic and tautomer forms. This parameter is an indicator of the extent of hydration at the position considered, as the higher the H parameter the higher local hydration ([Amaro et al., 2015]). A difference in the H parameter inferred for the 7H4MC probe at the different positions of the apo GHSR was observed depending on the position considered (Figure 2—figure supplement 1, 2).
(§2) Figure 2. Local hydration of growth hormone secretagogue receptor (GHSR) as a function of ligands. […] All ligands were used at a 10 µM concentration. In all cases, the data represents the mean value ± SD of three experiments. Statistical analyses are provided in […]—figure supplement 2 and 4. Figure 2—source data 1. H parameter for GHSR and its mutants. Figure 2—figure supplement 1. Emission spectra of L-(7-hydroxycoumarin-4-yl) (7H4MC)-ethylglycine incorporated into isolated growth hormone secretagogue receptor (GHSR). The spectra were recorded in the absence of ligand. The labeling positions are given in a snake-like plot of GHSR ([Shiimura et al., 2020]) (A) (red: positions deleterious to GHSR function; green: positions considered in this work), and then indicated in each panel (B–F). The excitation wavelength was set to 320 nm with an emission intensity recorded between 340 and 600 nm. The gray curve represents the experimental emission spectrum (exp). The red, blue, green, and magenta spectra represent the decomposition of the experimental spectrum into its neutral (N), complexed (C), anionic (A), and tautomeric (T) components, respectively. The orange curve (fit) corresponds to sum of the individual N, C, A, and T curves. Figure 2—figure supplement 1—source data 1. 7-H4MC emission intensity of the apo GHSR mutants. [drawing 7] Figure 2—figure supplement 2. Statistical analysis of the data in Figure 2. […] Data is from Figure 2. […] Structure of the ligands used throughout this work. [drawing 9] Figure 2—figure supplement 4. Statistical analysis of the data in Figure 2. The left panels show the hydration parameter for each of the mutants in the absence or in the presence of ligands. Data are from Figure 2. The right panels show the mean difference between the apo and the ligand-loaded states for each of the mutants with multiplicity-adjusted 95% confidence intervals. [drawing 10] Figure 2—figure supplement 5. Emission spectra of L-(7-hydroxycoumarin-4-yl) (7H4MC)-ethylglycine incorporated at position 5.58 of growth hormone secretagogue receptor (GHSR) in the presence of pharmacologically distinct ligands or phosphatidylinositol-4,5-bisphosphate (PIP2). […] The excitation wavelength was set to 320 nm with an emission intensity recorded between 340 and 600 nm. The black curve represents the experimental emission spectrum (exp). The red one (fit) corresponds to sum of the individual curves after decomposition of the experimental spectrum into its neutral, complexed, anionic, and tautomeric components. Figure 2—figure supplement 5—source data 1. 7-H4MC emission intensity of the GHSR 5.58 mutant in the presence of ligands. [drawing 11] Figure 2—figure supplement 6. […]

[2] = test system: GHSR labeled with 7H4MC-ethylglycine at I134^3.43; assay: as above; assay type: biochemical, human; settings: ligand 10 µM, POPC:POPG nanodiscs, 15°C, ex 320 nm
Source text: as §1, §2

[3] = test system: GHSR labeled with 7H4MC-ethylglycine at S315^7.45; assay: as above; assay type: biochemical, human; settings: ligand 10 µM, POPC:POPG nanodiscs, 15°C, ex 320 nm
Source text: as §1, §2

[4] = test system: GHSR labeled with 7H4MC-ethylglycine at V268^6.40; assay: as above; assay type: biochemical, human; settings: for H parameter: 6.4, ligand 10 µM, POPC:POPG nanodiscs, 15°C, ex 320 nm
Source text: as §1, §2

[5] = test system: GHSR labeled with 7H4MC-ethylglycine at Y232^5.58; assay: as above; assay type: biochemical, human; settings: for H parameter: 5.58
Source text: as §1, §2

7H4MC-labeled GHSR = assay: Hydration parameter H from 7H4MC fluorescence emission, several positions together; assay type: biochemical, human; settings: positions besides 5.58 and 6.44; saturating ligand (10 µM); vs apo
Source text: as §1
Figure 2. Local hydration of growth hormone secretagogue receptor (GHSR) as a function of ligands. […] All ligands were used at a 10 µM concentration. […] The spectra were recorded in the absence of ligand. […] The excitation wavelength was set to 320 nm with an emission intensity recorded between 340 and 600 nm. […] The excitation wavelength was set to 320 nm with an emission intensity recorded between 340 and 600 nm. […]

[6] = test system: GHSR labeled with 7H4MC-ethylglycine at W215^5.41; assay: Ligand binding and activation of W215^5.41-labeled receptor; assay type: biochemical, human; settings: basal activity markedly decreased
[7] = test system: GHSR labeled at I134^3.43, Y232^5.58, V268^6.40, F272^6.44, and S315^7.45; assay: Effect of 7H4MC-ethylglycine labeling on ghrelin binding and Gq activation; assay type: biochemical, human; settings: positions I134^3.43, Y232^5.58, V268^6.40, F272^6.44, S315^7.45
GHSR F272^6.44 mutants = settings: ref Valentin-Hansen et al., 2012, cited from earlier work
Source text: (§3) The fluorescent probe was introduced at different positions along GHSR sequence. […] The absence of major effect on substituting F272^6.44 with 7H4MC-ethylglycine on GHSR functioning was puzzling, as mutating this residue to an ala ...

[8] = test system: GHSR F272^6.44 to alanine mutant; settings: mutating F272^6.44 to alanine; ref Valentin-Hansen et al., 2012; cited from earlier work
Source text: as §3

isolated GHSR = settings: ghrelin versus SPA; ref Mary et al., 2012; cited from earlier work
Source text: We then used 7H4MC fluorescence to monitor the impact of ligand binding on the hydration pattern of GHSR.

[9] = ligand 10 µM, POPC:POPG nanodiscs, 15°C, ex 320 nm, replicate 1
[10] = ligand 10 µM, POPC:POPG nanodiscs, 15°C, ex 320 nm, replicate 2
[11] = ligand 10 µM, POPC:POPG nanodiscs, 15°C, ex 320 nm, replicate 3
[12] = Figure 5, 10 µM ghrelin, 2.5% PIP2-to-total lipids molar ratio, replicate 1
[13] = Figure 5, 10 µM ghrelin, 2.5% PIP2-to-total lipids molar ratio, replicate 2
[14] = Figure 5, 10 µM ghrelin, 2.5% PIP2-to-total lipids molar ratio, replicate 3
[15] = Figure 5, 10 µM ghrelin, no PIP2, replicate 1
[16] = Figure 5, 10 µM ghrelin, no PIP2, replicate 2
[17] = Figure 5, 10 µM ghrelin, no PIP2, replicate 3
[18] = saturating ligand (10 µM), vs apo

## ghrelin: natural full agonist of GHSR, natural peptide agonist (GSSFLSPEHQRVQQRKESKKPPAKLQPR; not fully specified; ends and bridges not checked; UniProt Q9UBU3 24-51, looked up)
[1]; [9]
  H parameter: 21.07
[1]; [10]
  H parameter: 20.32
[1]; [11]
  H parameter: 19.11
[1]; [12]
  H parameter: 15.658
[1]; [13]
  H parameter: 15.178
[1]; [14]
  H parameter: 13.342
[1]; [15]
  H parameter: 18.095
[1]; [16]
  H parameter: 20.174
[1]; [17]
  H parameter: 21.958
[1]; [18]
  change in the hydration parameter at position 6.44 upon binding: local hydration at position 6.44 decreased
[2]; replicate 1
  H parameter: 68.24
[2]; replicate 2
  H parameter: 63.92
[2]; replicate 3
  H parameter: 67.2
[3]; replicate 1
  H parameter: 24.96
[3]; replicate 2
  H parameter: 23.88
[3]; replicate 3
  H parameter: 21.19
[4]; replicate 1
  H parameter: 61.86
[4]; replicate 2
  H parameter: 65.16
[4]; replicate 3
  H parameter: 62.17
[4]; [18]
  change in the hydration parameter at V268^6.40: no change was observed for V268^6.40
[5]; [9]
  H parameter: 48.83
[5]; [10]
  H parameter: 49.38
[5]; [11]
  H parameter: 47.22
[5]; [12]
  H parameter: 60.136
[5]; [13]
  H parameter: 58.145
[5]; [14]
  H parameter: 61.325
[5]; [15]
  H parameter: 49.568
[5]; [16]
  H parameter: 47.078
[5]; [17]
  H parameter: 48.124
[5]; [18]
  change in the hydration parameter at position 5.58 upon binding: increase in the hydration parameter at position 5.58
7H4MC-labeled GHSR
  change in the hydration parameter at other positions: no relevant change in the hydration parameter
[6]
  ligand binding and activation of W215^5.41 mutant: could still bind its ligands and be activated by ghrelin
[7]
  effect of labeling on ghrelin binding and receptor-catalyzed Gq activation: essentially neutral with regard to the ability of the receptor to bind ghrelin and activate Gq; also recorded: affected neither ghrelin binding nor the receptor-catalyzed Gq activation in a relevant manner
GHSR F272^6.44 mutants; mutating F272^6.44 to alanine
  ghrelin-induced signaling, F272^6.44 to alanine: reduce ghrelin-induced signaling
GHSR F272^6.44 mutants; replacing phenylalanine with tyrosine, compared with alanine
  basal- and ghrelin-induced GHSR activity, F272^6.44 to tyrosine: far lower impact on both basal- and ghrelin-induced GHSR activity
[8]
  ghrelin binding affinity, F272^6.44 to alanine: without affecting ghrelin binding affinity
Isolated GHSR
  effect of ghrelin and SPA on GHSR activation and conformational landscape: opposite effect of ghrelin and SPA on GHSR activation and conformational landscape
